These results are taken from patent publication US7301005B2, “Immunomodulatory peptides derived from heat shock proteins and uses thereof” (priority 2000, dated 2007).

Marks after values point to notes of the source that are not given here.

Common to all, as to assay type: cell-based, human
For assay [1], the system named is SFMC from patients with oJIA. Description: Proliferative response of SFMC incubated with dnaJ and restimulated with autologous feeder cells plus peptide. The note with it: for SI: Table 3, dnaJ 72 hr then restimulated with peptide, mean+SD. On the procedure: Results, expressed as stimulation index (SI), are shown as mean+SD.
In order to identify possible relevant epitopes on the bacterial dnaJ protein, PBMC and SFMC of patients with oJIA were incubated for 72 hr with dnaJ, and restimulated with autologous feeder cells the in presence or absence of selected E. coli derived MHC class II binder peptides for 96 hr.
(§1) In order to evaluate whether human homologous peptides could be the target of cross-recognition leading to self reactivity, human peptides derived from regions of HSJ1, HDJ1, or HDJ2 having sequence homology with E. coli dnaJ were studied. SFMC of 14 patients with oJIA presenting a SI to the recombinant E. coli hsp dnaJ greater than 3 were restimulated for 96 hr with autologous cells in presence or absence of human peptide 2, 3, or 5, which are homologs of bacterial peptide 4; human peptide 20, 21, or 23, which are homologs of bacterial peptide 22; or human peptide 164, 167, or 176, which are homologs of bacterial peptide 174. SFMC proliferative responses, pro-inflammatory cytokine production, and anti-inflammatory IL-4 levels were overall similar between the peptides derived from human dnaJ proteins and the homologous bacterial peptides.
Results are expressed as SI or pg/ml (mean+SD). […]
To explore the possible correlation of clinical features with the development of peptide-induced immune modulation, oJIA patients were grouped according to the course of disease, including those with persistent disease (n=16), and those with extended disease (n=15) o-JIA. (FIG. 25).

Assay [2] has as its system SFMC from patients with oJIA. As to the kind of experiment: Cytokine production in culture supernatants of SFMC incubated with dnaJ and restimulated with autologous feeder cells plus peptide. As to conditions: for IFNγ / IL-6 / TNFα / IL-4 / IL-10: mean+SD; for production of IL-10 in patients with extended oligoarthritis: three patients with extended oligoarthritis at sampling; for IL-10 production detectable or not: culture supernatants of SFMC.
Source text: Results are expressed as pg/ml (mean+SD).
Cytokine production to the same peptides was examined in culture supernatants of SFMC from patients with oJIA. […] SFMC from only one of 21 patients with oJIA produced detectable levels of the anti-inflammatory cytokine IL-10, and none produced detectable levels of IL-4.
as §1
Results are expressed as SI or pg/ml (mean+SD).

The test system of assay [3] is synovial fluid mononuclear cells (SFMC) from patients with oJIA. Description: Proliferative response (stimulation index) of SFMC stimulated with antigen for 96 hr. As to conditions: SFMC.
Assay [4] has as its system peripheral blood mononuclear cells (PBMC). Description: Proliferative response (stimulation index) of PBMC stimulated with antigen for 96 hr. As to conditions: PBMC.
[5] abbreviates: Table 3, dnaJ 72 hr then restimulated with peptide.
[6] abbreviates: Table 1, dnaJ 72 hr then restimulated with peptide 72 hr.

On to “ASYYEILDVPRSASA (listed as Homo sapiens) [Peptide 2, human HSJ1 peptide, homologue of bacterial dnaJ peptide 4]”, for which, in assay [1], the SI was 5.9 + 5.7. Besides, in assay [2] (setting [5]), the IFNγ was 51.3 + 72.4 pg/ml, the IL-6 is reported as 41.7 + 43.8 pg/ml and the TNFα was 23.2 + 26.8 pg/ml.
Consider “DLQLAMAYSLSEMEA (listed as Homo sapiens) [Peptide 254, non-homologous human peptide (HSJ1)]”, for which the “production of IL-10 in patients with extended oligoarthritis” value (shortened to “production of IL-10 in patients”) in assay [2] is reported as “reduced production of IL-10”.
Take “EDLFMCMDIQLVEAL (listed as Homo sapiens) [Peptide 256, non-homologous human peptide (HDJ2)]”: the “production of IL-10 in patients” value in assay [2] is “reduced production of IL-10”.
Regarding “FRSVSTSTTFVQGRR (listed as Homo sapiens) [Peptide 164, human HSJ1 peptide, homologue of bacterial dnaJ peptide 174]”, in assay [1], the SI was 4.2 + 4.0. In addition, in assay [2] (setting [5]), the IFNγ is recorded as 52.5 + 85.2 pg/ml, the IL-6 is given as 27.3 + 31.3 pg/ml and the TNFα is 13.5 + 18.9 pg/ml.
Turning to “GDLYVQVQVKQHPIF (listed as Escherichia coli) [Peptide 242, bacterial (E. coli) dnaJ peptide]”, in assay [2] (setting [6]), the IFNγ worked out at 41.2 ± 48.8 pg/mL, the IL-4 was less than 0.39 pg/mL, the IL-6 was found to be 34.1 ± 41.7 pg/mL and the IL-10 was 5.3 ± 6.6 pg/mL. Further, the TNFα in assay [2] (setting [6]) was determined as 14.2 ± 29.2 pg/mL.
In the case of “GRRITTRRIMENGQE (listed as Homo sapiens) [Peptide 176, human HSJ1 peptide, homologue of bacterial dnaJ peptide 174]”, the SI in assay [1] is reported as 4.3 + 2.7. Also, in assay [2] (setting [5]), the IFNγ was 45.6 + 68.3 pg/ml, the IL-6 was 21.2 + 25.2 pg/ml and the TNFα is given as 8.9 + 10.3 pg/ml.
Taken in the same sequence, the figures for “KDYYQTLGLARGASD (listed as Homo sapiens) [Peptide 3, human HDJ1 peptide, homologue of bacterial dnaJ peptide 4]” were 8.0 + 7.5, 57.5 + 85.7 pg/ml, 114.0 + 126 pg/ml and 10.3 + 9.9 pg/ml.
Turning to “KKAYRKLALKYHPDK (listed as Homo sapiens) [Peptide 23, human HDJ2 peptide, homologue of bacterial dnaJ peptide 22]”, the SI in assay [1] is 4.7 + 4.0. Also, in assay [2] (setting [5]), the IFNγ is reported as 38.2 + 75 pg/ml, the IL-6 was 33.3 + 32.7 pg/ml and the TNFα is on record as 7.7 + 7.6 pg/ml. Also, the “IL-10 production detectable or not” value in assay [2] was “did not induce detectable levels of IL-10”.
In the same order, the values of “KKAYRRKALQWHPDK (listed as Homo sapiens) [Peptide 20, human HSJ1 peptide, homologue of bacterial dnaJ peptide 22]” are 4.7 + 4.7, 25.3 + 47.4 pg/ml, 33.0 + 34.0 pg/ml, 11.8 + 11.2 pg/ml and “did not induce detectable levels of IL-10”.
As for “KRAYRRQALRYHPDK (listed as Homo sapiens) [Peptide 21, human HDJ1 peptide, homologue of bacterial dnaJ peptide 22]”, the SI in assay [1] is recorded as 4.6 + 4.2. In assay [2] (setting [5]), the IFNγ is given as 30.8 + 56.4 pg/ml, the IL-6 was 33.5 + 43.8 pg/ml and the TNFα was 26.6 + 39.3 pg/ml. Moreover, in assay [2], the “IL-10 production detectable or not” value was “did not induce detectable levels of IL-10”.
With “PGMVQQIQSVCMECQ (listed as Homo sapiens) [Peptide 167, human HDJ2 peptide, homologue of bacterial dnaJ peptide 174]”, the SI in assay [1] is 3.9 + 3.1. For the same substance, in assay [2] (setting [5]), the IFNγ is 38.3 + 61.2 pg/ml, the IL-6 was 23.0 + 22.3 pg/ml and the TNFα is listed as 7.3 + 7.3 pg/ml.
Consider “PINFAMAALGGEIEV (listed as Escherichia coli) [Peptide 268, bacterial (E. coli) dnaJ peptide]”, for which, in assay [2] (setting [6]), the IFNγ is 34.7 ± 51.2 pg/mL, the IL-4 is less than 0.39 pg/mL, the IL-6 turned out to be 45 ± 58.4 pg/mL and the IL-10 is less than 3.9 pg/mL. Also, in assay [2] (setting [6]), the TNFα was determined as 17.2 ± 30.1 pg/mL.
Take “QAYEVLSDAKKRELYD (listed as Homo sapiens) [Peptide 50, non-homologous human peptide (HDJ2)]”: in assay [2], the “production of IL-10 in patients” value was “reduced production of IL-10”.
Regarding “QDYYEILGVSKTAEE (listed as Escherichia coli) [Peptide 4, bacterial (E. coli) dnaJ peptide]”, in assay [1], the SI is reported as 4.1 + 3.33. For the same substance, in assay [2] (setting [6]), the IFNγ was found to be 38.5 ± 47.7 pg/mL, the IL-4 is less than 0.39 pg/mL, the IL-6 amounted to 49.8 ± 54.0 pg/mL and the IL-10 was found to be 5.4 ± 6.9 pg/mL. In addition, the TNFα in assay [2] (setting [6]) was 9.8 ± 21.2 pg/mL. In assay [2] (setting [5]), the IFNγ is 30.8 + 52.4 pg/ml, the IL-6 is on record as 60.2 + 60.3 pg/ml and the TNFα is listed as 6.0 + 4.5 pg/ml.
Turning to “QGFFAVQQTCPHCQG (listed as Escherichia coli) [Peptide 174, bacterial (E. coli) dnaJ peptide]”, the SI in assay [1] was 5.9 + 7.5. Besides, in assay [2] (setting [6]), the IFNγ is 29.8 ± 44.6 pg/mL, the IL-4 is less than 0.39 pg/mL, the IL-6 came out at 47.3 ± 61.2 pg/mL and the IL-10 is 4.2 ± 1.9 pg/mL. Besides, in assay [2] (setting [6]), the TNFα stood at 16.1 ± 31.5 pg/mL. For the same substance, in assay [2] (setting [5]), the IFNγ is reported as 31.4 + 53.1 pg/ml, the IL-6 is on record as 56.4 + 70 pg/ml and the TNFα is on record as 16.1 + 30.9 pg/ml.
For “QKRAAYDQYGHAAFEQ (listed as Escherichia coli) [Peptide 61, bacterial (E. coli) dnaJ peptide]”, in assay [2] (setting [6]), the IFNγ was determined as 31 ± 45.7 pg/mL, the IL-4 is less than 0.39 pg/mL, the IL-6 worked out at 47.6 ± 70.5 pg/mL and the IL-10 is less than 3.9 pg/mL. Besides, in assay [2] (setting [6]), the TNFα worked out at 22.6 ± 35.3 pg/mL.
In the case of “RKAYKRLAMKYHPDR (listed as Escherichia coli) [Peptide 22, bacterial (E. coli) dnaJ peptide]”, the SI in assay [1] is 4.7 + 4.0. For the same substance, in assay [2] (setting [6]), the IFNγ amounted to 27 ± 38.0 pg/mL, the IL-4 is less than 0.39 pg/mL, the IL-6 worked out at 45.7 ± 57.7 pg/mL and the IL-10 was 4.4 ± 2.7 pg/mL. Also, the TNFα in assay [2] (setting [6]) was 14.1 ± 26.8 pg/mL. In assay [2] (setting [5]), the IFNγ was 20.1 + 33.5 pg/ml, the IL-6 is on record as 54.3 + 69.0 pg/ml and the TNFα was 10.5 + 23.1 pg/ml. Also, the “IL-10 production detectable or not” value in assay [2] was “did not induce detectable levels of IL-10”.
With “RTIVITSHPGQIVKH (listed as Homo sapiens) [Peptide 283, non-homologous human peptide (HDJ2)]”, in assay [2], the “production of IL-10 in patients” value is “reduced production of IL-10”.
“SKTLSVKIPGAVDTG (listed as Escherichia coli) [Peptide 209, bacterial (E. coli) dnaJ peptide]”: in assay [2] (setting [6]), the IFNγ worked out at 41.3 ± 46.9 pg/mL, the IL-4 is less than 0.39 pg/mL, the IL-6 came to 56.6 ± 65.9 pg/mL and the IL-10 was 6.2 ± 5.8 pg/mL. In addition, in assay [2] (setting [6]), the TNFα stood at 15.3 ± 29.2 pg/mL.
As to “TTYYDVLGVKPNATQ (listed as Homo sapiens) [Peptide 5, human HDJ2 peptide, homologue of bacterial dnaJ peptide 4]”, the SI in assay [1] is listed as 8.2 + 7.3*. The “proliferative response compared with bacterial homolog” value in assay [1] (p<0.03) is on record as “significantly greater”. Further, in assay [2] (setting [5]), the IFNγ is listed as 69.5 + 105.2@ pg/ml, the IL-6 was 60.0 + 67.2 pg/ml and the TNFα was 18.9 + 16.9 pg/ml. Besides, in assay [2] (p<0.05), the “IFNγ production compared with bacterial homolog” value was “significantly greater”.
For the substance YCEVPTNFAMAALGG [Peptide 264], in assay [2] (setting [6]), the IFNγ amounted to 44.9 ± 55.8 pg/mL, the IL-4 was less than 0.39 pg/mL, the IL-6 was found to be 47.4 ± 61.2 pg/mL and the IL-10 is less than 3.9 pg/mL. In assay [2] (setting [6]), the TNFα turned out to be 14.0 ± 29.3 pg/mL.
tetanus toxoid [TT, reference compound]: the “median SI” value in assay [3] amounted to 6.0; in assay [4], 12.3.
